Ki data for one compound are collected here from BindingDB's records for patent US9745328 (Janssen Pharmaceutica NV, 2017).

The target of the assay is T1, Arachidonate 5-lipoxygenase-activating protein (Homo sapiens, UniProt P20292).
T1 sequence (P20292 whole entry): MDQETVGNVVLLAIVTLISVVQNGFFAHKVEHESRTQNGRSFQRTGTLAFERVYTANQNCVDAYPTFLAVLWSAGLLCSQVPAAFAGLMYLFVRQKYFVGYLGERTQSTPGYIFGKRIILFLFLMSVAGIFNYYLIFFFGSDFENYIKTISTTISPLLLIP
The assay can be described thus: Binding Assay.

Procedure: The FLAP binding assay is performed in HTRF format (homogeneous time resolved fluorescence). FLAP-containing membranes (1 μg/well final for human) are incubated in the presence of the HTRF ligand. […] The reaction is allowed to proceed for two hours after which the plate is read on an Envision plate reader in HTRF mode. Data are expressed as a HTRF ratio. For human FLAP binding assays, data are analyzed with 3DX Explorer software. […] For analysis, data from multiple runs are averaged and each compound may be tested in 2 to 20 runs. Each run comprises two plates and each plate includes duplicates. Data from each plate is averaged and data are imported into 3DX. The data from multiple runs are aggregated as the average of duplicates of the calculated ratios in order to calculate Ki and IC50 values.

Compound `Nc1cnc(-c2ccc(-c3ccccc3-c3ccc(N)nn3)cc2F)cn1` [US9745328, Compound 863] showed a Ki of 0.0411 µM.

The term Ki denotes the dissociation constant of the complex between target and ligand, obtained from inhibition or displacement.
